Assay [1] addresses T1, DENV2 protease (DENV2pro; DENV serotype 2 NS2B-NS3 protease construct, GGGGSGGGG-linked) (Dengue virus 2 Thailand/16681/84, UniProt P29990). The experiment in a line: biochemical.
Assay [2] deals with T1, DENV2 protease (DENV2pro; DENV serotype 2 NS2B-NS3 protease construct, GGGGSGGGG-linked). Description: biochemical. In kind it is binding.

By IC50 is commonly meant the midpoint of a concentration-inhibition curve. Broadly, the Kd is the free concentration of one partner at which half of the binding sites on the other are occupied at equilibrium, for simple one-to-one binding. High values mean lower affinity, low ones higher affinity.

Molecules are shown by their SMILES.

T1 sequence (P29990 1394-1440 limits assumed): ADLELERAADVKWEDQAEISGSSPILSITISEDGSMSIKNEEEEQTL
T1 sequence (P29990 1476-1660 limits assumed): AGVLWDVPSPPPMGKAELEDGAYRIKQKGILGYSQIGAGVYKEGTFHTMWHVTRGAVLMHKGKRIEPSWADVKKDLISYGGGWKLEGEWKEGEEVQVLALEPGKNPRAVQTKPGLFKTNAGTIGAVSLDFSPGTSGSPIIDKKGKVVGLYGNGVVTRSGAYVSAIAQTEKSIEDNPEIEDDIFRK

`N=C(N)NCCC[C@H](NC(=O)[C@H](CCCNC(=N)N)NC(=O)c1ccccc1)B(O)O` [compound 1] came in with an IC50 in assay [1] of 0.68 ± 0.01 µM. `CCCCCC(=O)N[C@H](C(=O)NCc1ccc(NC(=N)N)cc1)c1ccc(OCc2ccccc2)cc1` [compound 3]: in assay [1], the IC50 stood at 17.6 ± 2.15 µM. Turning to `NC(=O)c1cccc(NC(=O)[C@@H](NC(=O)c2ccc(Oc3ccccc3)cc2)c2ccc(OCc3ccccc3)cc2)c1` [compound 4], in assay [1], half-maximal inhibition (IC50) was put at 5.37 ± 0.73 µM. On the same count and under the same terms, next, `CC(C)(C)NC(=O)C(=O)/C=C/c1c[nH]c2ccccc12` [compound 5]: 37.1 ± 1.29 µM. With `NC(=O)c1ccc(CNC(=O)[C@@H](NC(=O)c2ccc(-c3cccs3)s2)c2ccc(OCc3ccccc3)cc2)cc1` [compound 23], the equilibrium dissociation constant (Kd) in assay [2] stood at 2.4 ± 0.6 µM.
